Test system: patients with rheumatoid arthritis
Test: Phase II clinical study in rheumatoid arthritis: effectiveness (symptoms, physical examination, comprehensive evaluation)
Assay type: in vivo, human
Set-up: ESR Reduced to norm., % of cases / CRP Reduced to Norm., % of cases / RF Reduced to norm., % of cases: concentration or dose not given beside the values
Method: It was a multiple-centered, randomized, parallel, positive controlled Phrase II clinical study.
All clinical studies except the above mentioned 120 cases were conducted in a single-blind condition.
1) Age 18˜65, male or female who agreed to the investigational treatment for 12 weeks to 6 months. History of rheumatoid arthritis was within 3 years.
2) Documented Rheumatoid Arthritis based on a diagnostic criteria of 1987 Revised ARA Criteria for the Classification of Rheumatoid Arthritis
3) Diagnosis of a typical active stage of RA: A patient is said to be on an active stage of RA if he or she has satisfied at least 4 of the following 5 items.
2) Patient who quitted the treatment for the ineffectiveness 7 days after the start of administration was included in the efficacy analysis. Patient who quitted the treatment for the side effects was not included in the efficacy analysis but the safety analyses.
1) The placebo run-in period: Seven days before administration, the selected patients stopped using NSAIDs and took a placebo instead.
4) For the double-blinded study, patients in both groups would be given capsules and tablets in same shapes, odors and amount. Placebo of capsule or tablet were included. Neither doctors nor patients can tell the group of treatment from the other.
5) No analgesics, anti-inflammation drugs, immune regulatory agents or muscle relaxants were allowed during the period of study. Acetaminophen could be used when necessary. If a physical therapy was started before enrollment, it was allowed to be continued, yet, it should be taken all the way during the period of clinical study.
1) Pain at rest: patients were asked to scale the degree of pain with a ruler [drawing 1]
2) Morning stiffness: Patients were requested to make notes on duration of their morning joint stiffness, a time span from its appearance to recovery in minutes every morning. The doctors should evaluate their record sheets by questioning them. For example “Do you fell stiff in any of your joints? (today, these 2 days)” When get a “yes” in answer, then “when did you get up today?” and “when does the stiffness be gone?”
3) Swelling of joints: Take count of the index of joint swelling by summing up the degree number of each joint.
0=normal; 1=swelling soft tissues (synovium) without hydrarthrus; 2=swelling soft tissues (synovium) with hydrarthrus.
4) Tenderness of joints: Take count of the index of joint tenderness by summing up the degree number of each joint:
5) Grip strength: Fold the arm belt of a sphygmomanometer twice and seal it in a small cloth bag suitable for a hand to hold. Aerates the belt in pressure of 20 mm Hg. Patients were asked to grip the bag with their not braced left and right hand, the grip strength is the average pressures in mm Hg for three times.
6) Time consumed for a 15 meters' walk (Seconds): Time started from a calm standing to the final of 15 meters. The average of three times.
7) General joint function (criteria of ARA):
8) Self-scoring and physician's grading on disease conditions: Both patients and doctors were required to submit their score sheet every time on follow-up survey. The scoring was made upon following criteria:
9) Patient's general condition: condition on the physical strength, sleep and appetite.
No effect: less than 30% improvement in symptoms and physical signs.
Improved: About 50% improvement in symptoms and physical signs (including general conditions in physical strength, sleep and appetite).

CN(Cc1cnc2nc(N)nc(N)c2n1)c1ccc(C(=O)N[C@@H](CCC(=O)O)C(=O)O)cc1 [MTX, Methotrexate]
MR Disappeared, cases (double blinded, 12 weeks): 15
NSJ 50% reduced, % of cases (double blinded, 12 weeks): 56.7%
NSJ 50% reduced, cases (double blinded, 12 weeks): 34
NSJ Disappeared, % of cases (double blinded, 12 weeks): 26.7%
NSJ Disappeared, cases (double blinded, 12 weeks): 16
RF 2 dilutions lower, % of cases (double blinded, 12 weeks): 36.7%
RF 2 dilutions lower, cases (double blinded, 12 weeks): 22
RF Reduced to norm., cases (double blinded, 12 weeks): 0
AGS 50% increased, % of cases (overall group, 4 weeks): 7.5%
AGS 50% increased, cases (overall group, 4 weeks): 19
CRP 50% reduced, % of cases (overall group, 4 weeks): 13.4%
CRP 50% reduced, cases (overall group, 4 weeks): 19
CRP Reduced to Norm., % of cases (overall group, 4 weeks): 4.9%
CRP Reduced to Norm., cases (overall group, 4 weeks): 7
ESR 50% reduced, % of cases (overall group, 4 weeks): 41.6%
ESR 50% reduced, cases (overall group, 4 weeks): 59
ESR Reduced to norm., % of cases (overall group, 4 weeks): 15.5%
ESR Reduced to norm., cases (overall group, 4 weeks): 22
ITJ 50% reduced, % of cases (overall group, 4 weeks): 19.0%
ITJ 50% reduced, cases (overall group, 4 weeks): 27
ITJ Disappeared, % of cases (overall group, 4 weeks): 2.8%
ITJ Disappeared, cases (overall group, 4 weeks): 4
MR 50% reduced, % of cases (overall group, 4 weeks): 45.8%
MR 50% reduced, cases (overall group, 4 weeks): 65
MR Disappeared, % of cases (overall group, 4 weeks): 9.8%
MR Disappeared, cases (overall group, 4 weeks): 14
NSJ 50% reduced, % of cases (overall group, 4 weeks): 48.6%
NSJ 50% reduced, cases (overall group, 4 weeks): 69
NSJ Disappeared, % of cases (overall group, 4 weeks): 10.6%
NSJ Disappeared, cases (overall group, 4 weeks): 15
RF 2 dilutions lower, % of cases (overall group, 4 weeks): 49.3%
RF 2 dilutions lower, cases (overall group, 4 weeks): 70
RF Reduced to norm., % of cases (overall group, 4 weeks): 4.9%
RF Reduced to norm., cases (overall group, 4 weeks): 7
AGS 50% increased, % of cases (overall group, 8 weeks): 16.7%
AGS 50% increased, cases (overall group, 8 weeks): 23
CRP 50% reduced, % of cases (overall group, 8 weeks): 17.6%
CRP 50% reduced, cases (overall group, 8 weeks): 25
CRP Reduced to Norm., % of cases (overall group, 8 weeks): 12.7%
CRP Reduced to Norm., cases (overall group, 8 weeks): 18
ESR 50% reduced, cases (overall group, 8 weeks): 80
ESR Reduced to norm., % of cases (overall group, 8 weeks): 18.3%
ESR Reduced to norm., cases (overall group, 8 weeks): 26
ITJ 50% reduced, % of cases (overall group, 8 weeks): 34.5%
ITJ 50% reduced, cases (overall group, 8 weeks): 49
ITJ Disappeared, % of cases (overall group, 8 weeks): 3.5%
ITJ Disappeared, cases (overall group, 8 weeks): 5
MR 50% reduced, % of cases (overall group, 8 weeks): 52.1%
MR 50% reduced, cases (overall group, 8 weeks): 74
MR Disappeared, % of cases (overall group, 8 weeks): 19.7%
MR Disappeared, cases (overall group, 8 weeks): 28
NSJ 50% reduced, % of cases (overall group, 8 weeks): 51.4%
NSJ 50% reduced, cases (overall group, 8 weeks): 73
NSJ Disappeared, % of cases (overall group, 8 weeks): 16.9%
NSJ Disappeared, cases (overall group, 8 weeks): 24
RF 2 dilutions lower, % of cases (overall group, 8 weeks): 59.9%
RF 2 dilutions lower, cases (overall group, 8 weeks): 85
RF Reduced to norm., % of cases (overall group, 8 weeks): 9.2%
RF Reduced to norm., cases (overall group, 8 weeks): 13
AGS 50% increased, % of cases (overall group, 12 weeks): 29.5%
AGS 50% increased, cases (overall group, 12 weeks): 42
CRP 50% reduced, % of cases (overall group, 12 weeks): 23.2%
CRP 50% reduced, cases (overall group, 12 weeks): 33
CRP Reduced to Norm., % of cases (overall group, 12 weeks): 17.6%
CRP Reduced to Norm., cases (overall group, 12 weeks): 25
ESR 50% reduced, cases (overall group, 12 weeks): 76
ESR Reduced to norm., % of cases (overall group, 12 weeks): 21.8%
ESR Reduced to norm., cases (overall group, 12 weeks): 31
ITJ 50% reduced, % of cases (overall group, 12 weeks): 50.7%
ITJ 50% reduced, cases (overall group, 12 weeks): 72
ITJ Disappeared, % of cases (overall group, 12 weeks): 6.3%
ITJ Disappeared, cases (overall group, 12 weeks): 9
MR 50% reduced, % of cases (overall group, 12 weeks): 67.6%
MR 50% reduced, cases (overall group, 12 weeks): 96
MR Disappeared, % of cases (overall group, 12 weeks): 11.3%
MR Disappeared, cases (overall group, 12 weeks): 34
NSJ 50% reduced, % of cases (overall group, 12 weeks): 61.3%
NSJ 50% reduced, cases (overall group, 12 weeks): 87
NSJ Disappeared, % of cases (overall group, 12 weeks): 19.0%
NSJ Disappeared, cases (overall group, 12 weeks): 27
RF 2 dilutions lower, % of cases (overall group, 12 weeks): 59.9%
RF 2 dilutions lower, cases (overall group, 12 weeks): 85
RF Reduced to norm., % of cases (overall group, 12 weeks): 11.3%
RF Reduced to norm., cases (overall group, 12 weeks): 16
AGS 50% increased, % of cases (overall group, 24 weeks): 16.7%
AGS 50% increased, cases (overall group, 24 weeks): 10
CRP 50% reduced, % of cases (overall group, 24 weeks): 18.3%
CRP 50% reduced, cases (overall group, 24 weeks): 11
CRP Reduced to Norm., % of cases (overall group, 24 weeks): 40.0%
CRP Reduced to Norm., cases (overall group, 24 weeks): 24
ESR 50% reduced, % of cases (overall group, 24 weeks): 23.3%
ESR 50% reduced, cases (overall group, 24 weeks): 14
ESR Reduced to norm., % of cases (overall group, 24 weeks): 43.3%
ESR Reduced to norm., cases (overall group, 24 weeks): 26
ITJ 50% reduced, % of cases (overall group, 24 weeks): 58.3%
ITJ 50% reduced, cases (overall group, 24 weeks): 35
ITJ Disappeared, % of cases (overall group, 24 weeks): 10.0%
ITJ Disappeared, cases (overall group, 24 weeks): 6
MR 50% reduced, % of cases (overall group, 24 weeks): 50.0%
MR 50% reduced, cases (overall group, 24 weeks): 30
MR Disappeared, % of cases (overall group, 24 weeks): 31.7%
MR Disappeared, cases (overall group, 24 weeks): 19
NSJ 50% reduced, % of cases (overall group, 24 weeks): 46.7%
NSJ 50% reduced, cases (overall group, 24 weeks): 28
NSJ Disappeared, % of cases (overall group, 24 weeks): 26.7%
NSJ Disappeared, cases (overall group, 24 weeks): 16
RF 2 dilutions lower, % of cases (overall group, 24 weeks): 38.3%
RF 2 dilutions lower, cases (overall group, 24 weeks): 23
RF Reduced to norm., % of cases (overall group, 24 weeks): 10.0%
RF Reduced to norm., cases (overall group, 24 weeks): 6
Changes in RA perimeters: GS-L (overall groups, 4 weeks, mean): 12.56
Changes in RA perimeters: GS-R (overall groups, 4 weeks, mean): 11.60
Changes in RA perimeters: ISJ (overall groups, 4 weeks, mean): 3.73
Changes in RA perimeters: ITJ (overall groups, 4 weeks, mean): 6.04
Changes in RA perimeters: MR (overall groups, 4 weeks, mean): 35.76
Changes in RA perimeters: NSJ (overall groups, 4 weeks, mean): 2.10
Changes in RA perimeters: NTJ (overall groups, 4 weeks, mean): 2.61
Changes in RA perimeters: PR (overall groups, 4 weeks, mean): 1.05
Changes in RA perimeters: GS-L (overall groups, 8 weeks, mean): 16.66
Changes in RA perimeters: GS-R (overall groups, 8 weeks, mean): 19.36
Changes in RA perimeters: ITJ (overall groups, 8 weeks, mean): 12.66
Changes in RA perimeters: MR (overall groups, 8 weeks, mean): 54.20
Changes in RA perimeters: NSJ (overall groups, 8 weeks, mean): 4.43
Changes in RA perimeters: NTJ (overall groups, 8 weeks, mean): 5.38
Changes in RA perimeters: PR (overall groups, 8 weeks, mean): 1.94
Changes in RA perimeters: TSJ (overall groups, 8 weeks, mean): 6.59
Changes in RA perimeters: GS-L (overall groups, 12 weeks, mean): 23.06
Changes in RA perimeters: GS-R (overall groups, 12 weeks, mean): 28.10
Changes in RA perimeters: ISJ (overall groups, 12 weeks, mean): 10.25
Changes in RA perimeters: ITJ (overall groups, 12 weeks, mean): 18.77
Changes in RA perimeters: MR (overall groups, 12 weeks, mean): 78.52
Changes in RA perimeters: NSJ (overall groups, 12 weeks, mean): 6.77
Changes in RA perimeters: NTJ (overall groups, 12 weeks, mean): 8.78
Changes in RA perimeters: GS-L (overall groups, 24 weeks, mean): 31.83
Changes in RA perimeters: GS-R (overall groups, 24 weeks, mean): 30.90
Changes in RA perimeters: ISJ (overall groups, 24 weeks, mean): 6.88
Changes in RA perimeters: ITJ (overall groups, 24 weeks, mean): 13.94
Changes in RA perimeters: MR (overall groups, 24 weeks, mean): 60.70
Changes in RA perimeters: NSJ (overall groups, 24 weeks, mean): 5.39
Changes in RA perimeters: NTJ (overall groups, 24 weeks, mean): 9.05
Changes in RA perimeters: PR (overall groups, 24 weeks, mean): 2.62
